In PubChem BioAssay AID493102 (Broad Institute, 2011):

Test system: SK-MEL-5 TRPM1-promoter luciferase reporter, 24 h
Assay: TRPM1 promoter luciferase signal decrease, dose response, MITF inhibitor project, cell-based, SK-MEL-5, cherry-picked, set 4 (AID 493102);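 note: actives lower the luciferase signal so the potency reflects inhibition of reporter expression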

Compound	AC50 [µM]
O=C(C#Cc1ccccc1)c1cccc([N+](=O)[O-])c1	3.62
Nc1ccc(-c2nc3c(Cl)cc(N)cc3[nH]2)cc1	3.76
O=C1c2ccccc2S(=O)(=O)N1Cc1nc2ccccc2s1	2.7
COc1cccc(C(=O)Oc2c(CN3CCOCC3)cc(Cl)c3cccnc23)c1	9.89
CN1C/C(=C/c2cccnc2)C(=O)/C(=C/c2cccnc2)C1	5.31
Oc1c(CN2CCCC2)cc(COCc2ccccc2)c2cccnc12	6.15
COCCn1c(C)cc(C(=O)CSc2nnc(C)s2)c1C	3.04
O=C(NC1=NCCS1)C1COc2ccccc2O1 (stereo not drawn)	1.7
O=C(O)c1ccccc1C(=O)Nc1ccc(Oc2cccc3ccccc23)cc1	18.8
Cc1ccc(C(=O)c2cccc(N)c2)cc1C	3.62
CCc1ccc(-c2cc(C(=O)Nn3cnnc3)c3ccccc3n2)cc1	12.5
CC(C)[C@H](NC(=O)OC(C)(C)C)c1nnc(S(=O)(=O)Cc2c(F)cccc2Cl)o1	11.6
C=C1CCC[C@]2(C)C[C@H]3OC(=O)C(CN4CCCCC4CO)[C@H]3CC12 (stereo partly drawn)	11
N#Cc1cc2c(nc1SC1CC(=O)N(c3ccccc3)C1=O)CCC2 (stereo not drawn)	1.78
CC(C)CC(=O)/C=C/n1c(=S)oc2ccccc21	10.5
CCOc1ccc2nc(C)cc(Nc3cccc([N+](=O)[O-])c3)c2c1	17.8
CCN(CC)S(=O)(=O)c1cccc(C(=O)N/N=C(\C)c2ccc(O)cc2O)c1	3.74
O=C(N/N=C/c1ccc([N+](=O)[O-])s1)c1ccccc1	2.29
O=C(N/N=C\c1cc(Cl)ccc1O)c1ccc(S(=O)(=O)N2CCCCC2)cc1	2.81
COC1=C(c2ccccc2)C(=O)c2ccccc2C1=O	9.05
CCC(=O)Nc1cc2nn(-c3ccc(C)cc3)nc2cc1C	4.15
Cc1ccc(-c2cc3onc(-c4ccccc4)c3c(=O)n2C)cc1	9.77
O=C(/C=C\Nc1ccc2c(c1)OCO2)c1ccccn1	2.08

Compound	AC50 [µM]
Cc1ccc(C#CC[N+]2(CC#Cc3ccc(C)cc3)CCCCC2)cc1	3.95
O=C(O)c1cccc(COc2ccccc2Cl)c1	0.756
O=C1NC(=O)N(c2ccccc2)C(=O)/C1=C/C=C/c1ccco1	8.29
Cn1cc(C(=O)N/N=C/c2c(O)ccc3ccccc23)ccc1=O	2.55
CN(C)c1cc[n+](CC(=O)c2ccc(-c3ccccc3)cc2)cc1	2.6
CC(C)(C)C(=O)Cn1ncc(Cl)c(Cl)c1=O	10.4
O=C(CCl)Nc1cn(-c2ccccc2)nc1-c1ccccc1	14.5
COc1ccc(N(C(=O)CCl)C(C(=O)NC2CCCCC2)c2cccnc2)cc1 (stereo not drawn)	5.87
CN(C)c1nc(C=C(C#N)C#N)c(Cl)n1-c1ccc(F)cc1	3.92
CC(/C=C1\SC(=O)N(CCCC(=O)O)C1=O)=C\c1ccccc1	2.36
COc1ccc(-c2cc(-c3ccccc3)c(C#N)c(S(C)=O)n2)cc1 (stereo not drawn)	11.8
CC1=NNC(=O)/C1=C\c1cn(-c2ccccc2)nc1-c1ccc(F)cc1	6.52
N#C/C(=C\C=C\c1ccccc1[N+](=O)[O-])C(=O)NC1CCCCC1	7.8
O=C(Nc1ccc(N2CCN(C(=O)c3ccc(Cl)cc3)CC2)cc1)c1ccc([N+](=O)[O-])o1	7.32
COC(=O)c1ccc(/C=C(\C#N)C(=O)NC(C)c2ccccc2)cc1 (stereo not drawn)	10.7
CN(C(=O)/C=C/c1ccc([N+](=O)[O-])s1)c1ccccc1	9.11
CCOC(=O)N1CCC(NC(=O)C2CCCN(Cc3nc(-c4cccc(C)c4)oc3C)C2)CC1 (stereo not drawn)	34.9
Cc1ccc(NC(=O)c2cc(N3C(=O)C=CC3=O)ccc2N2CCOCC2)cc1	11.6
COc1cccc2sc(N(CCCN(C)C)C(=O)C(c3ccccc3)c3ccccc3)nc12	15.1
C=CCn1c(C)cc(C(=O)CN2C(=O)c3ccccc3S2(=O)=O)c1C	0.666
O=C(COC(=O)c1ccc[nH]c1=O)Nc1ccc(N2CCCCC2)cc1	1.03
O=C(c1nnsc1S(=O)(=O)c1ccc(Cl)cc1)N1CCOCC1	9.51
OC(CNCC(c1ccc(Cl)cc1Cl)c1c[nH]c2ccccc12)c1ccccc1 (stereo not drawn)	14.7

Compound	AC50 [µM]
Cc1cnc(NC(=O)c2nn(C)cc2[N+](=O)[O-])s1	20.6
O=C(O)c1cccc(N/N=C/c2cccs2)c1	1.51
C=C1C(=O)O[C@@]23[C@H]1CC[C@@H](C)[C@@H]2CC[C@@]1(C)O[C@@H]31	5.22
CC1=NC(=O)C(N=Nc2cccc(C(=O)O)c2)N1c1ccccc1 (stereo not drawn)	8.62
O=C(/C=C/NNC(=O)c1ccccc1)c1ccc([N+](=O)[O-])cc1	9.19
O=C(CCl)Nc1cccc(-c2cnc3ccccc3n2)c1	4.02
Cc1nc(Sc2nnnn2C)c2c3c(sc2n1)CCC3	4.98
Nc1ccc(-c2cc3ccccc3c(=O)o2)cc1	0.293
Oc1cc(NCCN2CCOCC2)cc2cccnc12	25.9
Clc1cccc(-c2nc(-c3ccccn3)no2)c1	5.92
COc1ccc(S(=O)(=O)N(C(C)=O)c2ccc(OC(C)=O)c3ccccc23)cc1[N+](=O)[O-]	11.6
Cc1ccc2nc(C)cc(Nc3ccc([N+](=O)[O-])cc3)c2c1	5.88
COc1ccccc1NS(=O)(=O)c1cccc(C(=O)N/N=C/c2ccc([N+](=O)[O-])o2)c1	4.3
COc1cc(/C=C/C(=O)c2ccc3c(c2)OCCO3)cc(Br)c1OCC(=O)N(C)C	6.17
CC(C)(C)c1ccc(Cn2c(=N)n(CC(O)c3ccco3)c3ccccc32)cc1 (stereo not drawn)	11.8
Nc1c(N(CCC2=CCCCC2)C(=O)COc2ccc([N+](=O)[O-])cc2)c(=O)[nH]c(=O)n1Cc1ccccc1	14.2
CN1CCN(c2ccc(NC(=O)c3ccc([N+](=O)[O-])o3)cc2Cl)CC1	9.02
Cc1ccc2nc(NC(=O)CSCC(=O)OCC(=O)c3ccccc3)sc2c1	5.78
O=C1C(Cl)=C(N2CCN(c3ccccc3[N+](=O)[O-])CC2)C(=O)c2ccccc21	3.59
CC(C)c1ccc(N2C(=O)NC(=O)/C(=C/C=C/c3ccco3)C2=O)cc1	5.89
C/C(=N\NC(=O)C(C)Oc1ccc([N+](=O)[O-])cc1)c1ccccn1 (stereo not drawn)	2.39
CCN(CC)CCCNC1=C(Cl)C(=O)c2ccccc2C1=O	1.79
C#CC(=O)N(c1ccc(OC)cc1OC)C(C(=O)NC1CCCC1)c1cccs1 (stereo not drawn)	4.73

Compound	AC50 [µM]
CN1CCN(C2=C(NS(=O)(=O)c3cccs3)C(=O)c3ccccc3C2=O)CC1	6.98
Oc1c(CN2CCCCC2)cc(COCc2ccccc2)c2cccnc12	2.17
O=C(CCl)N1c2ccccc2SCC1c1ccccc1 (stereo not drawn)	4.2
O=C(N/N=C/c1ccccn1)c1cc([N+](=O)[O-])cc([N+](=O)[O-])c1	6.53
Cn1nnnc1Sc1ncnc2scc(-c3cccc(F)c3)c12	5.98
COc1cccc(/C=C2/Sc3ccc(C(=O)NCCN4CCCC4)cc3NC2=O)c1	17.9
C(#Cc1ccccc1)C[N+]1(CC#Cc2cccc3ccccc23)CCCC1	6.21
CC1CCN(Cc2nc(-c3ccc(Cl)cc3)no2)CC1	7.62
CCOC(=O)c1c(C)oc2c1C(=O)c1ccccc1C2=O	3.18
Cc1cc(Sc2ncnc(N)c2[N+](=O)[O-])ncn1	7.61
N#CC(C#N)=C1C=CC=CN1/C(=C\c1ccco1)C(=O)c1ccc(Br)cc1	5.59
Nc1ccc(-c2nc3ccc(C(=O)O)cc3s2)cc1	0.866
CCCCn1c(=O)[nH]c(=O)c2c1nc(Cn1ncc(Cl)c(Cl)c1=O)n2CCC	8.12
C/C(=N\NC(=O)C1COc2ccccc2O1)c1ccccn1 (stereo not drawn)	4.49
COc1ccc(C(=O)N/N=C/c2cc(Br)ccc2O)cc1OC	4.76
Cc1cccc(N2C(=O)NC(=O)/C(=C\c3cccn3-c3ccc(Cl)cc3)C2=O)c1	8.91
O=C(Cn1ncc(Cl)c(Cl)c1=O)c1ccc(Cl)cc1	8.81
O=C1CCC2S/C(=C/Nc3ccc(C(F)(F)F)cc3)C(=O)N12 (stereo not drawn)	3.57
CC(=O)N(\C=C/C=C/C=C1\Sc2ccccc2C1=O)c1ccccc1	8
CCOC(=O)/C=c1/s/c(=C/c2ccc3cc(OC)ccc3c2)c(=O)n1CC(=O)NCC1CCCO1 (stereo not drawn)	6.79
COc1ccc(C(=O)/C=C/C(=O)N(CC(=O)NC2CCCCC2)Cc2ccccc2)c(O)c1	5.24
CC(NC(=O)C12CC3CC(CC(C3)C1)C2)C(=O)NN=Cc1ccc([N+](=O)[O-])o1 (stereo not drawn)	7.79
O=c1c(Cl)c(Cl)cnn1Cc1ccc(F)cc1	8.9

Compound	AC50 [µM]
CN(C)S(=O)(=O)c1ccc(-c2csc(N/N=C/c3ccc(O)cc3)n2)cc1	4.6
CCN1CCc2c(sc(NC(=O)c3ccc(S(=O)(=O)N4CCCC4)cc3)c2C(=O)NC)C1	9.14
Cc1cc(C)cc(NS(=O)(=O)c2ccc3c(c2)c(=O)n(C)c(=O)n3C)c1	4.67
O=C(CCl)N1c2ccccc2CCc2ccccc21	5.54
COc1ccc(C(=O)Nc2ccc(C)cn2)c(OC)c1	3.7
O=S(=O)(CC(CN1CCCCC1)N1CCCCC1)c1ccc2ccccc2c1 (stereo not drawn)	12.5
CCOC(=O)c1ccc2c(c1)n(CC)c(/C=C/N(C)c1ccccc1)[n+]2CC	3.24
O=C(Nc1ccc(Cl)cc1)Nc1cccc(C(=O)O)c1	3.79
COc1cc2c(cc1OC)C(c1ccccc1)N(C(=O)CCl)CC2 (stereo not drawn)	5.36
O=[N+]([O-])/C=C\c1ccc(N2CCOCC2)cc1	13.6
Cc1[nH]nc2nc(SCC(=O)NCCC3=CCCCC3)n(-c3ccc(Br)cc3)c(=N)c12	2.46
Cc1c(CCOC(=O)c2ccc(Cl)cc2Cl)sc[n+]1CC(=O)c1ccc(Br)cc1	19.8
CC1CCC(C(C)C)C(OC(=O)Cn2c(-c3ccc(F)cc3)[n+](C)c3ccccc32)C1 (stereo not drawn)	5.57
CN1C(=O)/C(=C/c2cccn2-c2ccc3ccccc3c2)C(=O)NC1=S	9.42
O=C1/C(=C/c2ccccc2[N+](=O)[O-])COc2ccccc21	9.8
O=C1c2cc([N+](=O)[O-])cc3cc([N+](=O)[O-])cc(c23)C(=O)N1c1ccccn1	7.92
Cc1ccc(-c2nc(C(=O)NCCCN(C)C)cc3c2[nH]c2ccccc23)cc1	11.2
CC(C)C(=O)NC(c1ccco1)c1ccc2cccnc2c1O (stereo not drawn)	8.18
Cc1cc(C)c2c(N)c3cccc(C)c3nc2n1	3.21
O=C(c1ccccc1)C(CN1CCCC1)c1ccccc1 (stereo not drawn)	5.33
CC1CCN(CC2C(=O)O[C@@H]3C[C@@]4(C)CCC[C@H](C)C4=C[C@H]23)CC(C)(C)C1 (stereo partly drawn)	16.1
